Tested on: MCPP-induced Hypolocomotion
Assay: Reversal of MCPP-induced hypolocomotion
Type: in vivo
Conditions: po, procedure of WO 94/04533, read-out: ID50 (the source's name)
From the text: Reversal of MCPP-induced Hypolocomotion

Which ED50 does the source give for `COc1cc2c(cc1C(F)(F)F)N(C(=O)Nc1cccc(-c3cccnc3)c1)CC2` [Example 1] here?
Its ED50 is 0.5 to 5.5 mg/kg.

Tested on: not given
Assay: not given
Conditions: not given

With `COc1cc2c(cc1C(F)(F)F)N(C(=O)Nc1cc(F)cc(-c3cccnn3)c1)CC2` [Example 118] as the compound, how does the melting point read?
The melting point was 230 to 231 °C.

Which melting point does the source give for `COc1cc2c(cc1C(F)(F)F)N(C(=O)Nc1ccc3c(ccn3Cc3ccncc3)c1)CC2` [Example 72, 1-(1-(4-Pyridylmethyl)-5-indolylcarbamoyl)-5-methoxy-6-trifluoromethylindoline] here?
Its melting point is 215 to 218 °C.

For `COc1cc2c(cc1C(F)(F)F)N(C(=O)Nc1ccc(Oc3ccccc3)nc1)CC2` [Example 155], which melting point is on record?
The melting point was 202 to 203 °C.

Which melting point does the source give for `COc1cc2c(cc1C(F)(F)F)N(C(=O)Nc1ccc(Oc3cccnc3)cc1)CC2` [Example 143] here?
The melting point was 193 to 194 °C.

Which melting point does the source give for `Cc1cc2c(cc1Cl)N(C(=O)Nc1cc(F)c(C)c(-c3cccnc3)c1)CC2` [Example 129] here?
The melting point was 233 to 235 °C.

With `COc1cc2c(cc1C(F)(F)F)N(C(=O)Nc1cncc(-c3c(F)cccc3F)c1)CC2` [Example 22, 1-(5-(2,6-Difluorophenyl)-3-pyridylcarbamoyl)-5-methoxy-6-trifluoromethylindoline] as the compound, how does the melting point read?
Its melting point is 217 to 219 °C.

For `COc1cc2c(cc1C(F)(F)F)N(C(=O)Nc1ccc(Oc3cccnc3Cl)nc1)CC2` [Example 161], which melting point is on record?
Its melting point is 238 to 240 °C.

For `COc1cc2c(cc1C(F)(F)F)N(C(=O)Nc1cncc(-c3ccsc3)c1)CC2` [Example 16, 1-[5-(3-Thienyl)-pyrid-3-yl Carbamoyl]-5-methoxy-6-trifluoromethyl Indoline], which melting point is on record?
Its melting point is 165 to 167 °C.

With `COc1cc2c(cc1C(F)(F)F)N(C(=O)Nc1cc(Cl)cc(-c3cccnc3)c1)CC2` [Example 106] as the compound, how does the melting point read?
Its melting point is 183 to 185 °C.

With `CSc1cc2c(cc1C(F)(F)F)N(C(=O)Nc1cccc(C(=O)NCCc3ccccn3)c1)CC2` [Example 153] as the compound, how does the melting point read?
The melting point was 92 to 94 °C.

With `COc1cc2c(cc1C(F)(F)F)N(C(=O)Nc1cccc(-c3c(C)ccnc3C)c1)CC2` [Example 111] as the compound, how does the melting point read?
The melting point was 202 to 204 °C.

With `COc1cc2c(cc1C(F)(F)F)N(C(=O)Nc1cc(-c3cccnc3)cc(C(F)(F)F)c1)CC2` [Example 105] as the compound, how does the melting point read?
The melting point was 220 to 222 °C.

Which melting point does the source give for `Cc1cc2c(cc1Cl)N(C(=O)Nc1cc(F)cc(-c3cnccn3)c1)CC2` [Example 131] here?
The melting point was 226 to 227 °C.

Which melting point does the source give for `COc1cc2c(cc1C(F)(F)F)N(C(=O)Nc1cc(F)c(C)c(N3C=CC=NC3)c1)CC2` [Example 128] here?
Its melting point is 188 to 189 °C.

With `COc1cc2c(cc1C(F)(F)F)N(C(=O)Nc1cccc(-c3cncnc3)c1)CC2` [Example 119] as the compound, how does the melting point read?
Its melting point is 245 to 250 °C.

Which melting point does the source give for `CSc1cc2c(cc1C(F)(F)F)N(C(=O)Nc1cccc(C(=O)NCc3ccccn3)c1)CC2` [Example 154] here?
Its melting point is 116 to 118 °C.

Which melting point does the source give for `Cc1cc2c(cc1C(F)(F)F)N(C(=O)Nc1cccc(-c3cccnc3)c1)CC2` [Example 103] here?
Its melting point is 208 to 210 °C.

Which melting point does the source give for `COc1cc2c(cc1C(F)(F)F)N(C(=O)Nc1cccc(-c3cccnc3C)c1)CC2` [Example 110] here?
Its melting point is 179 to 180 °C.

Which melting point does the source give for `C=Cc1cc(NC(=O)N2CCc3cc(OC)c(C(F)(F)F)cc32)cc(-c2cccnc2)c1` [Example 104] here?
The melting point was 138 to 140 °C.

With `COc1cc2c(cc1C(F)(F)F)N(C(=O)Nc1cncc(-c3ccncc3)c1)CC2` [Example 18, 1-[5-(4-Pyridyl)-pyrid-3-yl Carbamoyl]-5-methoxy-6-trifluoromethyl Indoline] as the compound, how does the melting point read?
The melting point was 230 to 234 °C.

With `CSc1cc2c(cc1C(F)(F)F)N(C(=O)Nc1ccc(Oc3ccc(C)nc3)nc1)CC2` [Example 66, 5-Methylthio-6-trifluoromethyl-1-[6-(6-methylpyridin-3-yloxy)pyridin-3-ylcarbamoyl]indoline] as the compound, how does the melting point read?
The melting point was 206 to 208 °C.

For `COc1cc2c(cc1C(F)(F)F)N(C(=O)Nc1cccc(-c3cnccn3)c1)CC2` [Example 120], which melting point is on record?
Its melting point is 208 to 209 °C.

For `COc1cc2c(cc1C(F)(F)F)N(C(=O)Nc1ccc(Oc3cccc(C(F)(F)F)c3)nc1)CC2` [Example 165], which melting point is on record?
Its melting point is 193 to 194 °C.

With `COc1cc2c(cc1C(F)(F)F)N(C(=O)Nc1cncc(-c3ccc[nH]3)c1)CC2` [Example 17, 1-[5-(2-Pyrrolyl)-pyrid-3-yl Carbamoyl]-5-methoxy-6-trifluoromethyl Indoline] as the compound, how does the melting point read?
Its melting point is 218 to 219 °C.

With `COc1cc2c(cc1C(F)(F)F)N(C(=O)Nc1cncc(-c3ccccc3C)c1)CC2` [Example 90] as the compound, how does the melting point read?
The melting point was 103 to 105 °C.

Which melting point does the source give for `COc1cc2c(cc1C(F)(F)F)N(C(=O)Nc1cc(F)cc(-c3cccnc3C)c1)CC2` [Example 125] here?
Its melting point is 204 to 205 °C.

With `COc1cc2c(cc1C(F)(F)F)N(C(=O)Nc1cccc(-c3cncc4ccccc34)c1)CC2` [Example 34, 1-[3-(4-Isoquinolyl)phenylcarbamoyl]-5-methoxy-6-trifluoromethyl Indoline] as the compound, how does the melting point read?
The melting point was 211 to 215 °C.

With `COc1cc2c(cc1C(F)(F)F)N(C(=O)Nc1cc(C(C)=O)cc(-c3cccnc3)c1)CC2` [Example 107] as the compound, how does the melting point read?
Its melting point is 174 to 176 °C.

For `CCc1ccccc1Oc1ccc(NC(=O)N2CCc3cc(OC)c(C(F)(F)F)cc32)cn1` [Example 162], which melting point is on record?
The melting point was 215 to 220 °C.

For `CSc1cc2c(cc1C(F)(F)F)N(C(=O)Nc1ccc(Sc3ccncc3)nc1)CC2` [Example 145], which melting point is on record?
The melting point was 214 to 216 °C.

Which melting point does the source give for `COc1cc2c(cc1C(F)(F)F)N(C(=O)Nc1ccc(-c3ccccc3)nc1)CC2` [Example 94] here?
Its melting point is 204 to 207 °C.

For `COc1cc2c(cc1C(F)(F)F)N(C(=O)Nc1cccc(-c3ccc(N(C)C)cc3)c1)CC2` [Example 97], which melting point is on record?
Its melting point is 213 to 215 °C.

Which melting point does the source give for `O=C(Nc1ccc(F)c(-c2cccnc2)c1)N1CCc2cc(Br)c(C(F)(F)F)cc21` [Example 174] here?
Its melting point is 200 to 201 °C.

Which melting point does the source give for `COc1cc2c(cc1C(F)(F)F)N(C(=O)Nc1ccc(OC(F)(F)F)c(-c3cccnc3)c1)CC2` [Example 123] here?
Its melting point is 99 to 100 °C.

Which melting point does the source give for `COc1cc2c(cc1C(F)(F)F)N(C(=O)Nc1cccc(COc3cccnc3)c1)CC2` [Example 139] here?
Its melting point is 188 to 190 °C.

Which melting point does the source give for `CSc1cc2c(cc1C(F)(F)F)N(C(=O)Nc1ccc(C(=O)NCc3ccncc3)cc1)CC2` [Example 151] here?
Its melting point is 138 to 140 °C.

For `COc1cc2c(cc1C(F)(F)F)N(C(=O)Nc1cccc(-c3ccc(C)nc3)c1)CC2` [Example 112], which melting point is on record?
Its melting point is 228 to 230 °C.

With `COc1cc2c(cc1C(F)(F)F)N(C(=O)Nc1ccc(Oc3ccc(C#N)cc3)nc1)CC2` [Example 176] as the compound, how does the melting point read?
The melting point was 188 to 189 °C.

With `COc1cc2c(cc1C(F)(F)F)N(C(=O)Nc1ccc(Sc3ccncc3)nc1)CC2` [Example 146] as the compound, how does the melting point read?
Its melting point is 204 to 206 °C.

For `COc1cc2c(cc1C(F)(F)F)N(C(=O)Nc1cc(-c3cccnc3)c(OC)c(C(F)(F)F)c1)CC2` [Example 108], which melting point is on record?
The melting point was 180 to 181 °C.

For `COc1cc2c(cc1C(F)(F)F)N(C(=O)Nc1cc(Br)c(C)c(-c3cccnc3)c1)CC2` [Example 33, 1-[3-Bromo-4-methyl-5-(3-pyridyl)phenylcarbamoyl]-5-methoxy-6-trifluoromethylindoline], which melting point is on record?
Its melting point is 216 to 218 °C.

For `COc1cc2c(cc1C(F)(F)F)N(C(=O)Nc1cc(-c3cccnc3)cc(-c3cccnc3)c1)CC2` [Example 114], which melting point is on record?
Its melting point is 155 to 156 °C.

With `COc1cc2c(cc1C(F)(F)F)N(C(=O)Nc1cccc(-c3cccnc3)c1)CC2` [Example 83] as the compound, how does the melting point read?
Its melting point is 192 to 193 °C.

With `CSc1cc2c(cc1C(F)(F)F)N(C(=O)Nc1cnc(-c3cccnc3)c(Cl)c1)CC2` [Example 141] as the compound, how does the melting point read?
Its melting point is 245 to 250 °C.

With `CSc1cc2c(cc1C(F)(F)F)N(C(=O)Nc1cccc(C(O)CCc3ccccn3)c1)CC2` (centres unmarked) [Example 150] as the compound, how does the melting point read?
The melting point was 78 to 80 °C.

Which melting point does the source give for `COc1cc2c(cc1C(F)(F)F)N(C(=O)Nc1ccc(Sc3cccnc3)nc1)CC2` [Example 67, 5-Methoxy-6-trifluoromethyl-1-[6-(pyridin-3-ylthio)pyridin-3-ylcarbamoyl]indoline] here?
Its melting point is 208 to 210 °C.

For `COc1cc2c(cc1C(F)(F)F)N(C(=O)Nc1ccc(Oc3ccc(F)cc3C)nc1)CC2` [Example 159], which melting point is on record?
Its melting point is 208 to 209 °C.

With `COc1cc2c(cc1C(F)(F)F)N(C(=O)Nc1ccc(CSc3ccncc3)cc1)CC2` [Example 60, 5-Methoxy-6-trifluoromethyl-1-[4-(pyridin-4-ylthiomethyl)phenyl Carbamoyl]indoline] as the compound, how does the melting point read?
The melting point was 174 to 175 °C.

For `COc1cc2c(cc1C(F)(F)F)N(C(=O)Nc1ccc3c(ccn3-c3cccnc3)c1)CC2` [Example 73, 1-(1-(3-Pyridyl)-5-indolylcarbamoyl)-5-methoxy-6-trifluoromethyl Indoline], which melting point is on record?
Its melting point is 202 to 204 °C.

Which melting point does the source give for `COc1cc2c(cc1C(F)(F)F)N(C(=O)Nc1cccc(-c3ccc(C)nn3)c1)CC2` [Example 121] here?
Its melting point is 229 to 231 °C.

For `COc1cc2c(cc1C(F)(F)F)N(C(=O)Nc1cncc(-c3ccc(F)cc3)c1)CC2` [Example 87], which melting point is on record?
The melting point was over 200 °C.

For `COc1cc2c(cc1C(F)(F)F)N(C(=O)Nc1cncc(-c3cccs3)c1)CC2` [Example 15, 1-[5-(2-Thienyl)-pyrid-3-yl Carbamoyl]-5-methoxy-6-trifluoromethyl Indoline], which melting point is on record?
Its melting point is 193 to 208 °C.

With `COc1cc2c(cc1C(F)(F)F)N(C(=O)Nc1cccc(-c3cccc(CN(C)C)c3)c1)CC2` [Example 99] as the compound, how does the melting point read?
Its melting point is 185 to 187 °C.

With `CSc1cc2c(cc1C(F)(F)F)N(C(=O)Nc1ccc(C(=O)NCc3cccnc3)cc1)CC2` [Example 68, 5-Methylthio-6-trifluoromethyl-1-[4-(pyrid-3-ylmethyl)amido Phenyl Carbamoyl]indoline] as the compound, how does the melting point read?
The melting point was over 250 °C.

Which melting point does the source give for `COc1cc2c(cc1C(F)(F)F)N(C(=O)Nc1cccc(-c3cccnc3)c1Cl)CC2` [Example 85] here?
The melting point was 214 to 216 °C.

For `COc1cc2c(cc1C(F)(F)F)N(C(=O)Nc1cncc(-c3cc(F)cc(F)c3)c1)CC2` [Example 88], which melting point is on record?
The melting point was 226 to 229 °C.

With `COc1cc2c(cc1C(F)(F)F)N(C(=O)Nc1ccc(SCc3ccncc3)cc1)CC2` [Example 62, 5-Methoxy-6-trifluoromethyl-1-[4-(pyridin-4-ylmethylthio)phenyl Carbamoyl]indoline] as the compound, how does the melting point read?
Its melting point is 160 to 163 °C.

For `COc1cc2c(cc1C(F)(F)F)N(C(=O)Nc1cccc(-c3ccc[nH]3)c1)CC2` [Example 102], which melting point is on record?
The melting point was over 240 °C.
